Experiments:
[1] = tested on: β-tubulin in white blood cells; assay: Western blot of white blood cells from rats after compound 1 infusion; format: in vivo, rat; conditions: 3 h infusion of compound 1 sodium salt, 20 mg/kg
Method: (§1) White blood cells (“WBC”) were isolated from blood samples (5 ml) taken immediately after a 3 h infusion of compound 1 sodium salt from rats or a human patient treated at 20 mg/kg and 220 mg/m2, respectively, as follows. The samples were mixed with 5 ml of PBS and layered on a Ficoll cushion (10 ml, “Lymphoprep” (density is ˜1.077 and osmolality 280 mOsm, Gibco/BRL). After centrifugation (1000 rpm, 30 min (Sorvall RC3C centrifuge)) at room temperature WBC were isolated from the cushion and the sample was diluted 1:5 with PBS. After centrifugation (2000 rpm for 10 min) the liquid was discarded and the cell pellet was resuspended in 1 ml of PBS. The solution was transferred to an Eppendorf tube and the cells were collected by centrifugation (3000 rpm, 5 min). After the supernatant was discarded the cell pellet was stored at −80° C. or processed as follows. Rat WBC-pellet was resuspended in 15 μl of IEF-buffer and mixed with 15 μl of 2× SDS sample buffer. The human sample was mixed immediately with an equal volume (10 μl) of SDS sample buffer. Protein samples ([…], human; 2 μl, rat) were analyzed by SDS-PAGE and subjected to western blot analyzes as outlined above.

cellular tubulin = conditions: cited from earlier work
β-tubulin isotypes = conditions: cited from earlier work
[2] = tested on: β-tubulin in white blood cells; assay: Western blot of white blood cells from a human patient after compound 1 infusion; format: in vivo
Method: as §1
As a standard 10 μg of purified brain tubulin was mixed with […] of BRB80 buffer and incubated with 10 μl of ^3H-compound 1 (10 μCi) in a 500 μl reaction at […] for 2 h. […]

COc1ccc(NS(=O)(=O)c2c(F)c(F)c(F)c(F)c2F)cc1F [compound 1, 2-fluoro-1-methoxy-4-pentafluorophenylsulfonamidobenzene]
β-tubulin modification in white blood cells (western blot with 2C1H7) [1]: a protein consistent of the size of β-tubulin was visible
binding to cellular tubulin (cellular tubulin): time- and concentration-dependent
modification of other cellular proteins (β-tubulin isotypes): no other cellular proteins are modified
covalent modification of β-tubulin isotypes (β-tubulin isotypes; five known β-tubulin isotypes, β1, β2, β4 have Cys239, β3 and β5 have serine): binding is restricted to those β-tubulin isotypes that have a cysteine residue at amino acid position 239 in β-tubulin
amount of loaded tubulin modified by compound 1 ([2]; human WBC sample, compared with 3H-compound 1-β-tubulin standard curve): ~7.5 fmol
β-tubulin modification in white blood cells (western blot with 2C1H7) ([2]; human patient, 3 h infusion of compound 1 sodium salt, 220 mg/m2): a protein consistent of the size of β-tubulin was visible

— patent US20020106705A1, “Detection method for monitoring beta tubulin isotype specific modification” (Tularik Inc., priority 1999, published 2002)
